# Laboratory results taken from patent publication US7429599B2, “Methods for treating or preventing an inflammatory or metabolic condition or inhibiting JNK” (Signal Pharmaceuticals, LLC, priority 2000, dated 2008).
# Where a name gives a salt, the structure may show the parent alone. Read-outs that look alike come from different tables or passages of the source.
# Molecular target: T1, His6-JNK2 (Homo sapiens, UniProt P45984)
# T1 construct: His6 (N)
# Test: JNK2 Assay (c-Jun phosphorylation, 32P-ATP filter plate)
# Type: biochemical
# Conditions: c-Jun phosphorylation reduced to 50% of control, GST-c-Jun(1-79), 11 μM ATP
# Protocol: To 10 μL of the test compound in 20%/DMSO/80% dilutien buffer consisting of 20 mM HELPS (pH 7.6), 0.1 mM; EDTA, 2.5 mM magnesium chloride, 0.004% Triton×100, 2 μg/mL leupeptin, 20 mM β-glycerolphosphate, 0.1 mM sodium vanadate, and 2 mM DTT in water is added 30 μL of 50 ng His6-JNK2 in the same dilution buffer. The mixture is preincubated for 30 minutes at room temperature. Sixty microliter of 10 μg GST-c-Jun(1-79) in assay buffer consisting of 20 mM HEPES (pH 7.6), 50 mM sodium chloride, 0.1 mM EDTA, 24 mM magnesium chloride, 1 mM DTT, 25 mM PNPP, 0.05% Triton×100, 11 μM ATP, and 0.5 μCi γ-^32P ATP in water is added and the reaction is allowed to proceed for 1 hour at room temperature. The c-Jun phosphorylation is terminated by addition of 150 μL of 12.5% trichloroacetic acid. After 30 minutes, the precipitate is harvested onto a filter plate, diluted with 50 μL of the scintillation fluid and quantified by a counter. The IC50 values are calculated as the concentration of the test compound at which the c-Jun phosphorylation is reduced to 50% of the control value.
# [1] = read-out: IC50 value in the JNK2 Assay
# T1 sequence (P45984 whole entry): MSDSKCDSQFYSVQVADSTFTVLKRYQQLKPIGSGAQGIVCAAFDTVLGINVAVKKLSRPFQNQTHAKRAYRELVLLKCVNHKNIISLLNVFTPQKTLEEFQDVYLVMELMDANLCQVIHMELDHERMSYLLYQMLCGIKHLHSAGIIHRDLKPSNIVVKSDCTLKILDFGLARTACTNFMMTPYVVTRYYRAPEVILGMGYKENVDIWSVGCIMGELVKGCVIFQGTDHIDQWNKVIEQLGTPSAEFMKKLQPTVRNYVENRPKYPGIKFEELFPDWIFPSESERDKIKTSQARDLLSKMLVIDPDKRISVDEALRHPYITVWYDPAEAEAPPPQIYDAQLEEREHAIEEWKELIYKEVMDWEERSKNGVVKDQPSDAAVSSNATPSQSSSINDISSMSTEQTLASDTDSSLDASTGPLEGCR
SMILES,IC50 [1],IC50 (IC50 value in the JNK2 Assay)
O=C(c1ccc(Nc2nccc(-c3ccc(Cl)cc3)n2)cc1)N1CCC(N2CCCCC2)CC1 [Compound 17-169],≤ 1 µM,–
O=C(c1ccc(Nc2nccc(-c3ccc(Cl)cc3)n2)cc1)N1CCOCC1 [Compound 17-133],≤ 10 µM,–
O=C(c1ccc(Nc2nccc(-c3ccc(Cl)cc3)n2)cc1)N1CCC(c2ccccc2)CC1 [Compound 17-140],≤ 10 µM,–
CN(C)c1ccc(-c2ccnc(Nc3ccc(C(N)=O)cc3)n2)cc1 [Compound 3-29],≤ 10 µM,–
"O=C(c1ccc(Nc2nccc(-c3ccc(Cl)cc3)n2)cc1)N1CCNCC1 [Compound 18, 4-{[4-(4-Chlorophenyl)pyrimidin-2-yl]amino}benzoic acid piperazine amide hydrochloride]",≤ 1 µM,–
O=C(c1ccc(Nc2nccc(-c3ccc(Cl)cc3)n2)cc1)N1CCN(Cc2cccnc2)CC1 [Compound 17-161],≤ 10 µM,–
O=C(c1ccc(Nc2nccc(-c3ccc(Cl)cc3)n2)cc1)N1CCN(C(=O)c2ccco2)CC1 [Compound 17-159],≤ 10 µM,–
O=C(NCCN1CCOCC1)c1ccc(Nc2nccc(-c3ccc(Cl)cc3)n2)cc1 [Compound 17-142],≤ 10 µM,–
O=C(c1ccc(Nc2nccc(-c3ccc(Cl)cc3)n2)cc1)N1CCC2(CC1)OCCO2 [Compound 17-139],–,≤ 10 µM
O=C(c1ccc(Nc2nccc(-c3ccc(Cl)cc3)n2)cc1)N1CCN(c2ccccn2)CC1 [Compound 17-148],≤ 10 µM,–
O=C(c1ccc(Nc2nccc(-c3ccc(Cl)cc3)n2)cc1)N1CCC(O)C1 (centres unmarked) [Compound 17-28],≤ 10 µM,–
CN(C)C(=O)c1ccc(Nc2nccc(-c3ccc(Cl)cc3)n2)cc1 [Compound 17-2],≤ 10 µM,–
O=C(Nc1ccc2[nH]ncc2c1)c1ccc(Nc2nccc(-c3ccc(Cl)cc3)n2)cc1 [Compound 17-119],≤ 10 µM,–
CN(C)C(=O)NC1CCN(C(=O)c2ccc(Nc3nccc(-c4ccc(Cl)cc4)n3)cc2)CC1 [Compound 20-5],≤ 10 µM,–
CCC(=O)N1CCN(C(=O)c2ccc(Nc3nccc(-c4ccc(Cl)cc4)n3)cc2)CC1 [Compound 17-37],≤ 1 µM,–
CN(C)CCCSc1ccc(-c2ccnc(Nc3ccc(C(N)=O)cc3)n2)cc1 [Compound 3-11],≤ 10 µM,–
O=C(c1ccc(Nc2nccc(-c3ccc(Cl)cc3)n2)cc1)N1CC=CCC1 [Compound 17-144],≤ 10 µM,–
CC(=O)N1CCN(C(=O)c2ccc(Nc3nccc(-c4ccc(SCCCO)cc4)n3)cc2)CC1 [Compound 17-33],≤ 1 µM,–
NC(=O)c1ccc(Nc2nccc(-c3ccccc3)n2)cc1 [Compound 3-4],≤ 1 µM,–
CN1CCN(S(=O)(=O)c2ccc(-c3ccnc(Nc4ccc(C(N)=O)cc4)n3)cc2)CC1 [Compound 3-17],≤ 10 µM,–
O=C(NCCCCO)c1ccc(Nc2nccc(-c3ccc(Cl)cc3)n2)cc1 [Compound 17-106],≤ 10 µM,–

SMILES,IC50 [1],IC50 (IC50 value in the JNK2 Assay)
O=C(NCCCn1ccnc1)c1ccc(Nc2nccc(-c3ccc(Cl)cc3)n2)cc1 [Compound 17-21],≤ 1 µM,–
CC(=O)c1ccc(N2CCN(C(=O)c3ccc(Nc4nccc(-c5ccc(Cl)cc5)n4)cc3)CC2)cc1 [Compound 17-134],≤ 10 µM,–
CN1CCN(C(=O)c2ccc(Nc3nccc(-c4ccc(Cl)cc4)n3)cc2)CC1 [Compound 17-127],≤ 1 µM,–
Cc1cnc(Nc2ccc(C(N)=O)cc2)nc1-c1ccc(Cl)cc1 [Compound 3-37],≤ 10 µM,–
CN1CCC(S(=O)(=O)c2ccc(-c3ccnc(Nc4ccc(C(N)=O)cc4)n3)cc2)CC1 [Compound 3-16],≤ 10 µM,–
NC(=O)c1ccc(Nc2nccc(-c3ccc(N4CCOCC4)cc3)n2)cc1 [Compound 3-30],≤ 10 µM,–
O=C(NC1CCN(C(=O)c2ccc(Nc3nccc(-c4ccc(Cl)cc4)n3)cc2)CC1)N1CCOCC1 [Compound 20-4],≤ 1 µM,–
CN(C)C(=O)c1ccc(Nc2nccc(-c3ccc(Br)cc3)n2)cc1 [Compound 17-18],≤ 10 µM,–
NC(=O)c1ccc(Nc2nccc(-c3ccc(N4CCCCC4)cc3)n2)cc1 [Compound 3-26],≤ 10 µM,–
C[C@@H]1CN(C(=O)c2ccc(Nc3nccc(-c4ccc(Cl)cc4)n3)cc2)C[C@H](C)N1 [Compound 17-190],≤ 1 µM,–
COc1ccccc1N1CCN(C(=O)c2ccc(Nc3nccc(-c4ccc(Cl)cc4)n3)cc2)CC1 [Compound 17-135],≤ 10 µM,–
CC(=O)NCCNC(=O)c1ccc(Nc2nccc(-c3ccc(Cl)cc3)n2)cc1 [Compound 17-22],≤ 1 µM,–
O=C(c1ccc(Nc2nccc(-c3ccc(Cl)cc3)n2)cc1)N1CCN(Cc2ccc3c(c2)OCO3)CC1 [Compound 17-128],≤ 10 µM,–
NC(=O)c1ccc(Nc2nccc(-c3ccc(SCCCN4CCOCC4)cc3)n2)cc1 [Compound 3-10],≤ 10 µM,–
CC(=O)NC1CCN(C(=O)c2ccc(Nc3nccc(-c4ccc(Cl)cc4)n3)cc2)CC1 [Compound 20-1],≤ 1 µM,–
CCCNC(=O)c1ccc(Nc2nccc(-c3ccc(Cl)cc3)n2)cc1 [Compound 17-132],≤ 10 µM,–
NC(=O)c1ccc(Nc2nccc(-c3cccs3)n2)cc1 [Compound 3-2],≤ 1 µM,–
O=C(NCCCN1CCCCC1)c1ccc(Nc2nccc(-c3ccc(Cl)cc3)n2)cc1 [Compound 17-23],≤ 10 µM,–
"NC(=O)c1ccc(Nc2nccc(-c3ccc(Cl)cc3)n2)cc1 [Compound 1, 4-{[4-(4-Chlorophenyl)pyrimidin-2-yl]amino}benzamide]",≤ 10 µM,–
NC(=O)c1ccc(Nc2nccc(-c3ccc4ccccc4c3)n2)cc1 [Compound 3-34],≤ 10 µM,–
